The values that follow come from patent US20080281105A1, “Novel Quinolinium Salts and Derivatives” (IMMUSOL INCORPORATED, priority 2005, published 2008).

Series [1] has as its system A549 cancer cells. Briefly: A549 NSCL xenograft model, combination with 2DG. The note with it: 2DG 300 mg/kg, Example 36 2 mg/kg, i.p. daily (6 times per week); Example 36 alone p<0.05 at day 24 and 27; combination p<0.05 at day 13-27; FIG. 7. Type of series: in vivo, mice. An excerpt:
Because the compounds of the invention may be more toxic to cancer cells deprived of glucose or treated with 2DG in vitro, the combination of 2DG with such compounds should have increased anti-tumor efficacy in vivo as compared with either agent alone. Accordingly, the effect of a combination therapy of the compound of Example 36 and 2DG using A549 NSCL xenograft model was examined.
Female athymic nude mice (nu/nu) (4-6 weeks old) were inoculated (s.c.) with 5×10^6 A549 cancer cells in PBS on the flanking site. After the tumors reached an average size ˜100 mm^3, the animals were divided into four treatment groups—0.9% NaCl (control), 2DG at 300 mg/kg, the compound of Example 36 at 2 mg/kg, and a combination of 2DG (300 mg/kg) and the compound of Example 36 (2 mg/kg). All the treatments were delivered by intraperitoneal injection daily (6 times per week). Tumor size and body weight were measured twice per week. Tumor volume was calculated using the formula TV=length×width×width/2.

Series [2] has as its system Panc-1, HCT-116, Pc3M/N, HEPG2, ASPC1, or H460 cells. Put plainly: Reduction of viable cell growth in glucose deprived media (liquid culture, alamarBlue). In kind it is cell-based. The note with it: for EC50: concentration giving at least 50% reduction of viable cell growth. In general terms: Resazurin is reduced to fluorescent resorufin, in cell work by metabolically active cells.

Series [3] relates to A549 cancer cells. Briefly: A549 xenograft model, combination with taxol. In kind it is in vivo, mice. The note with it: paclitaxel 20 mg/kg once per 4 days i.p.; IMS2155 2 mg/kg daily i.p.; p<0.05 for monotherapies; FIG. 5. As to the method: Combination treatment with taxol and the compound of Example 47 (also designated IMS2155) in the A549 (NCLC) model was tested. Taxol is one of standards of care for lung cancer.
Female athymic nude mice (nu/nu) (4-6 weeks old) were inoculated (s.c.) with 5×10^6 A549 cancer cells in PBS on the flanking site. The animals were divided into four treatment groups when the average tumor size reached 150 mm^3: group 1 (PBS daily i.p. dosing), group 2 (20 mg/kg paclitaxel once per 4 days i.p. dosing), group 3 (2 mg/kg IMS2155 daily i.p. dosing) and group 4 (20 mg/kg paclitaxel once per 4 days i.p. dosing and 2 mg/kg IMS2155 daily i.p. dosing). The tumor size and body weight was measured twice per week. Tumor volume was calculated using the formula TV=length×width×width/2.
It is noteworthy that IMS2155 worked almost as well as Taxol at the MTD dose (20 mg/kg for this strain of mice).

The test system of another series is Lewis lung cancer cells. Put plainly: Mouse Lewis lung cancer (LLC) xenograft model. Type of series: in vivo, mice. The conditions noted are these: 2 mg/kg intraperitoneal, 6 times per week; day 15; p<0.05; FIG. 6. As to the method:
Using the mouse Lewis lung cancer (LLC) xenograft model, female C57BL mice (4-6 weeks old) were inoculated (s.c.) with 5×10^5 Lewis lung cancer cells in PBS on the flanking site. Animals were randomly divided into treatment and control groups (n=8) based on tumor size when average tumor size reached 100 mm^3. Animals in the treatment group received the compound of Example 36 (also designated IMS2143) or the compound of Example 47 daily at 2 mg/kg via intraperitoneal dosing, 6 times per week respectively. The control group was injected with 0.9% NaCl. Tumor size and body weight were measured twice per week. Tumor volume was calculated using the formula TV=length×width×width/2.

In a further series the test system is H460 NSCL cells. Briefly: Non-small cell lung cancer (NSCL) xenograft early stage model in nude mice. In kind it is in vivo. As to the method:
The anti-tumor activity of the compound of Example 56 was tested in a nude mice xenograft early stage model. Female athymic nude (nu/nu) mice were inoculated with H460 NSCL cells and divided into two groups. The first group was dosed with vehicle (control), and the second group was dosed i. p. with the compound of Example 56 on a daily basis (6 times/week).

The subject of series [4] is eukaryotic translation system. The note with it: reported by Malina; cited from earlier work.
The subject of the next series is PC3 prostate cells. Briefly: PC3 medium-staged prostate xenograft model, combination therapy. Type of series: in vivo, mice. The note with it: Example 1 P.O. daily, doxorubicin or paclitaxel i.p.; tumors around 100 mm^3 at start; FIG. 3 and 4. On the procedure: The anti-tumor activity of compounds of the invention in combination with at least one additional chemotherapeutic agent was also tested in a nude mice xenograft model.
A. Female athymic nude (nu/nu) mice were inoculated with PC3 prostate cells. When tumor volumes reached around 100 mm^3, the animals were divided into four groups with average size of tumors similar among the four groups. The first group was dosed with vehicle (as control), the second group with the compound of Example 1 (P.O. daily), the third with doxorubicin (i.p.) and the fourth with the combination (i.p. Dox/p.o. compound of Example 1).
B. Female athymic nude (nu/nu) mice were inoculated with PC3 prostate cells. When tumor volumes reached around 100 mm^3, the animals were divided into four groups with average size of tumors similar among the four groups. The first group was dosed with vehicle (as control), the second group with the compound of Example 1 (P.O. daily), the third with paclitaxel (taxol) (i.p.) and the fourth with the combination (ip. taxol/p.o. compound of Example 1).

For the next series, the system named is transformed cell growth. The conditions noted are these: reported in the literature; cited from earlier work.

In the case of `O=CC[C@@H](O)[C@H](O)[C@H](O)CO` [Example 2DG, 2-deoxyglucose, reference compound], the A549 tumor growth entry in the series on A549 cancer cells [1] is recorded as “no response”.

A word on the EC50: it is the concentration at which the effect is half-maximal. Consider `COCCn1c(C)c(C=O)c(/C=C/c2ccc3cc(N(C)C)ccc3[n+]2C)c1C` [Example 25], for which the concentration for a half-maximal effect (EC50) in series [2] was under 1 µM.

In turn, `Cc1cc(/C=C/c2ccc3cc(N4CCOCC4)ccc3[n+]2C)c(C)n1-c1ccccc1` [Example 26] gave an EC50 in series [2] of 1 µM.

In series [2], `CCCCn1c(C)c(C=O)c(/C=C/c2ccc3cc(N4CCOCC4)ccc3[n+]2C)c1C` [Example 27] returned a half-maximal effective concentration (EC50) of over 1 µM.

In series [2], `Cc1c(C=O)c(/C=C/c2ccc3cc(N(C)C)ccc3[n+]2C)c(C)n1-c1ccccc1` [Example 28] registered a 50% effective concentration (EC50) of under 1 µM.

`Cc1cc(/C=C/c2ccc3cc(N4CCCCC4)ccc3[n+]2C)c(C)n1-c1ccccc1` [Example 29]: in series [2], the response was half-maximal at 1 µM (EC50).

`Cc1cc(/C=C/c2ccc3cc(N4CCC(C)CC4)ccc3[n+]2C)c(C)n1-c1ccccc1` [Example 30]: the 50% effective concentration (EC50) in series [2] came to 1 µM.

Regarding `CN(C)c1ccc2c(ccc(/C=C/c3cccc(-c4cccs4)n3)[n+]2C)c1` [Example 31], in series [2], the half-maximal effective concentration (EC50) came to 1 µM.

For the compound `CN(C)c1ccc2c(ccc(/C=C/c3ccc(-c4ccccc4)s3)[n+]2C)c1` [Example 32], the EC50 in series [2] worked out at 1 µM.

The compound `Cc1cc(/C=C/c2ccc3cc(N(C)C)ccc3[n+]2C)oc1C` [Example 33] returned a half-maximal effective concentration (EC50) in series [2] of 1 µM.

On to `CN(C)c1ccc2c(ccc(/C=C/c3cccc(Oc4ccccc4)c3)[n+]2C)c1` [Example 34], for which the EC50 in series [2] came out at 1 µM.

In the case of `CN(C)c1ccc2c(ccc(/C=C/c3ccc(Oc4ccccc4)cc3)[n+]2C)c1` [Example 35], the EC50 in series [2] is under 1 µM.

Regarding `CN(C)c1ccc2c(ccc(/C=C/c3ccc(-c4cc(C(F)(F)F)nn4C)s3)[n+]2C)c1` [Example 37], in series [2], the EC50 was found to be 1 µM.

The compound `CN(C)c1ccc2c(ccc(/C=C/c3ccc(-c4nn(C)cc4C(F)(F)F)s3)[n+]2C)c1` [Example 38] gave an EC50 in series [2] of 1 µM.

In series [2], `CCCCc1nc(/C=C/c2ccc3cc(N(C)C)ccc3[n+]2C)c(Cl)[nH]1` [Example 39] showed an EC50 of over 1 µM.

In the case of `CN(C)c1ccc2c(ccc(/C=C/c3coc4ccccc4c3=O)[n+]2C)c1` [Example 40], the EC50 in series [2] was 1 µM.

Consider `CN(C)c1ccc2c(ccc(/C=C/c3cn(S(=O)(=O)c4ccccc4)c4ccccc34)[n+]2C)c1` [Example 41], for which the EC50 in series [2] is 1 µM.

On to `CN(C)c1ccc2c(ccc(/C=C/c3ccc4oc(C(=O)c5ccc(Cl)cc5)cc4c3)[n+]2C)c1` [Example 42], for which the EC50 in series [2] came out at 1 µM.

For `CN(C)c1ccc2c(ccc(/C=C/c3ccc(OCc4ccsc4C#N)cc3)[n+]2C)c1` [Example 43], in series [2], the EC50 is under 1 µM.

As to `CN(C)c1ccc2c(ccc(/C=C/c3ccc(OC(F)(F)F)cc3)[n+]2C)c1` [Example 44], the EC50 in series [2] is 1 µM.

`COc1cc(/C=C/c2ccc3cc(N(C)C)ccc3[n+]2C)ccc1OCc1ccccc1` [Example 45]: the EC50 in series [2] was under 1 µM.

`CN(C)c1ccc2c(ccc(/C=C/c3ccc(OCc4ccccc4)cc3)[n+]2C)c1` [Example 46] had an EC50 in series [2] of under 1 µM.

Turning to `Cc1cc(/C=C/c2ccc3cc(N(C)C)ccc3[n+]2C)cc(C)c1OCc1ccccc1.O=S(=O)([O-])C(F)(F)F` [Example 47], the EC50 in series [2] was under 1 µM. Besides, in the series with A549 cancer cells [3], the A549 tumor size entry is “significant reduction in tumor size”. Also, in the series on Lewis lung cancer cells, the LLC tumor growth result is recorded as “significantly suppressed tumor growth”.

Regarding `Cc1c(/C=C/c2ccc3cc(N(C)C)ccc3[n+]2C)cnn1-c1ccccc1` [Example 48], the EC50 in series [2] was over 1 µM.

As to `CN(C)c1ccc2c(ccc(/C=C/c3sccc3Oc3ccccc3)[n+]2C)c1` [Example 49], the EC50 in series [2] is under 1 µM.

The compound `CN(C)c1ccc2c(ccc(/C=C/c3ccc(C#Cc4ccccc4)s3)[n+]2C)c1` [Example 50] yielded an EC50 in series [2] of under 1 µM.

Compound `CCn1c2ccccc2c2cc(/C=C/c3ccc4cc(N(C)C)ccc4[n+]3C)ccc21` [Example 51] showed an EC50 in series [2] of under 1 µM.

Turning to `CN(C)c1ccc2c(ccc(/C=C/c3cc(C(=O)c4ccc(F)cc4)cn3C)[n+]2C)c1.O=S(=O)([O-])C(F)(F)F` [Example 52], the “reduction of viable cell growth” value in series [2] (at the concentration stated in Table 3) is “inactive”. In addition, the EC50 in series [2] is over 1 µM.

As for `CCOC(=O)c1c(/C=C/c2ccc3cc(N(C)C)ccc3[n+]2C)c(C)n(C2CC2)c1C` [Example 53], the EC50 in series [2] was under 1 µM.

For the compound `CCOC(=O)c1c(/C=C/c2ccc3cc(N(C)C)ccc3[n+]2C)c(C)n(-c2ccccc2)c1C` [Example 54], the EC50 in series [2] was under 1 µM.

Take `CCOC(=O)c1c(/C=C/c2ccc3cc(N(C)C)ccc3[n+]2C)c(C)n(Cc2cccs2)c1C` [Example 55]: the concentration giving a half-maximal response (EC50) in series [2] was under 1 µM.

As to `CCCCn1c(C)c(C=O)c(/C=C/c2ccc3cc(N(C)C)ccc3[n+]2C)c1C.CS(=O)(=O)[O-]` [Example 56], in the series on H460 NSCL cells (NSCL, H460 xenograft, I.p.), the “Result: Tumor reduction” value was “Tumor reduction (41%)”. Besides, the “H460 tumor size as compared to control” value in the series on H460 NSCL cells (dosed i.p. daily (6 times/week), p<0.05, FIG. 2) was “significant reduction”. In the series on H460 NSCL cells (nude mice, H460 xenograft, i.p. daily (6 times/week)), the toxicity entry was “no apparent toxicity”. In addition, the EC50 in series [2] is under 1 µM.

In series [2], `CCCCn1c(C)c(C=O)c(/C=C/c2ccc3cc(C)ccc3[n+]2C)c1C` [Example 57] returned an EC50 of under 1 µM.

In the case of `CCCCn1c(C)c(C=O)c(/C=C/c2ccc3cc(Cl)ccc3[n+]2C)c1C` [Example 58], the EC50 in series [2] is under 1 µM.

Regarding `Cc1cc(C=Cc2ccc3cc(OC(N)=O)ccc3[n+]2C)c(O)c2ncccc12` [NSC 86372, 6-(aminocarbonyloxy)-2-(2-(8-hydroxy-5-methylquinolin-7-yl)vinyl)-1-methylquinolinium], the protein synthesis result in series [4] is on record as “inhibited protein synthesis”.

As to `CC(=O)O[C@H]1C(=O)[C@@]2(C)[C@H]([C@H](OC(=O)c3ccccc3)[C@]3(O)C[C@H](OC(=O)[C@H](O)[C@@H](NC(=O)c4ccccc4)c4ccccc4)C(C)=C1C3(C)C)[C@]1(OC(C)=O)CO[C@@H]1C[C@@H]2O` [Taxol, paclitaxel, reference compound], the “growth of PC3 medium-staged xenograft tumors” value with PC3 prostate cells is “reduced tumor size significantly”. Also, the A549 tumor size entry in the series on A549 cancer cells [3] is reported as “significant reduction in tumor size”.

As for `CC[n+]1c(C=Cc2ccc(N(C)C)cc2)ccc2ccccc21` [quinaldine red], the transformed cell growth entry in the series on transformed cell growth was “inhibitor of transformed cell growth”.
